In patent US20080221205A1, “FURAN DERIVATIVES FOR PREVENTING AND CURING OSTEOPOROSIS AND PHARMACEUTICAL COMPOSITIONS CONTAINING THE SAME” (priority 2002, published 2008):
“Also recorded” adds a separate entry of the source.

Experiments:
[1] = tested on: ovariectomized white mice; test: Bone mineral densitometer test, preventive effect on osteoporosis; type: in vivo; details: for Change in BMD, %: test group, oral 10 mg per mouse after ovariectomy
Method: After ovariectomy, female white mice weighing about 250 g were orally administered with 10 mg of the Compound 1 per mice for four weeks. Bone mineral density (BMD) was measured before the ovariectomy and every week during the administration of the Compound 1, using a bone mineral densitometer, XCT 540 Research SA made in Germany.
After anesthetizing the mice being bred in cages by intraperitoneal injection of a mixture of Ketamine HCl (ketara 10 mg/kg) and 2% xylazine HCl (Roupun 0.15 ml/kg), BMD measurement was made at a voxel size of 0.1×0.1 mm^2 and threshold values of 280 mg/cm^2 for cancellous bone and 500 mg/cm^2 for compact bone. The analysis sites at the proximal tibias were determined by Scout scans (10 mm/sec), and BMD was measured at three slices at the determined sites by CT scans (7 mm/sec). BMD measurement was performed twice or more at the same site every week during four weeks.

osteoclast formation = test: Inhibition rate of furan derivatives versus osteoclast formation (TRAP staining); type: cell-based, mice; details: TRAP-positive multinucleated cells, untreated control set as 100%
Method: First, bone marrow cells were isolated, as follow. After sacrificing 7-9 week female mice by cervical dislocation, femur and tibia were excised aseptically while removing attached soft tissues. After cutting both ends of long bones, 1 ml of an enzyme solution, containing 0.1% collagenase (Gibco), 0.05% trypsin and 0.5 mM EDTA (Gibco), was injected to the bone marrow cavity at one end using a syringe with a 26-guage needle, and bone marrow was then collected. After shaking the recovered bone marrow for 30 min, bone marrow cells were collected, and cultured in α-minimum essential medium (α-MEM) supplemented with 10% FBS for 24 hrs. Then, non-adherent cells were collected, which are osteoclast pregenitors, aliquotted onto culture plates at a density of 2×10^5 cells per well, and cultured for 8 days in α-MEM supplemented with 20 ng/ml of macrophage-colony stimulating factor (M-CSF, Peprotech, USA) and 30 ng/ml RANKL (Peprotech, USA). During the 8 days of culturing, the cells were treated with the Compound 1. Thereafter, osteoclast formation was investigated by fixing the cultured cells and then carrying out TRAP staining, as described in the following Experimental Example 2.2. In addition, resorption activity of osteoclasts was investigated by measuring the absorption area after removing osteoclasts in cultures in calcium phosphate-coated plates, as described in Experimental Example 2.3, below.
After cell culture, the adherent cells were washed with PBS, and TRAP staining was performed, as follows. After being fixed with citrate-acetate-formaldehyde for 5 min, the cells were incubated for 1 hr in acetate buffer (prewarmed at 37° C., pH 5.0) containing naphthol AS-BI phosphate, fast Garnet GBC and 7 mM tartrate buffer (pH 5.0). TRAP-positive multinucleated cells having 3 or more nuclei were considered as osteoclasts.
Osteoclast pregenitor cells were isolated, and their differentiation to mature osteoclasts was induced, according to the same method as in the Experimental Example 2-1, while treated with each of the furan derivatives of the present invention. According to the same method as in the Experimental Example 2-2, TRAP staining performed, and TRAP-positive multinucleated cells were counted. An inhibition rate of each furan derivative against osteoclast formation was expressed as percentage, wherein the number of stained cells in a control not treated the furan derivative was arbitrarily set as 100% (Tables 14 to 16).

[2] = tested on: ALP activity in HOS cells; test: Alkaline phosphatase (osteoblast marker enzyme) activity in HOS cells; type: cell-based, human; details: concentration not given
Source text: In the following tests, three kinds of cell lines were used. The human osteosarcoma cell lines, MG-63 (ATCC No. CRL-1427) and HOS (ATCC No. CRL-1543), and mouse muscle C2C12 muscle cells (ATCC No. CRL-1772) were purchased from ATCC (American Type Culture Collection, Rockville, USA), and cultured in Dulbecco's modified Eagle's medium (DMEM) supplemented with 10% fetal bovine serum (FBS).
To examine whether the Compound 1 affects positively or negatively osteoblast activity, alkaline phosphatase (ALP) activity was measured. HOS cells were aliquotted onto a 96-well microplate at a density of 5×10^3 cells per well, and cultured. When forming a monolayer, the cells were treated with the naturally extracted compound (Compound 1) at prescribed concentrations. After incubation in 10% FBS-containing DMEM for 48 hrs, the cells were treated with 0.1% Triton X-100/saline for 30 min at 37° C. A portion of each cell lysate was reacted with 0.1 N glycine-NaCh buffer (pH 10.4) for 30 min at 37° C. in the presence of 100 mM nitrophenyl phosphate (PNPP) as a substrate of alkaline phosphate. The amount of PNP (ρ-nitrophenol) released from the substrate PNPP was determined by measuring absorbance at 405 nm. Protein amount was determined by a modified Lowry method, and enzyme activity was designated as nmol substrate cleaved/h/mg protein.

## O=Cc1ccc(CO)o1 [Compound 1, 5-hydroxymethylfuran-2-carboxyaldehyde]
[1]; Week 1, control −7.5
  Change in BMD, %: −2.5%
[1]; Week 2, control −11.6
  Change in BMD, %: −3.2%
[1]; Week 3, control −14.9
  Change in BMD, %: −1.8%
[1]; Week 4, control −18.6
  Change in BMD, %: 3.7%
[1]; oral 10 mg/day for four weeks after ovariectomy
  BMD compared to that before ovariectomy (in words): increase in BMD; also recorded: remarkably increased bone mineral density (BMD)
Osteoclast formation; 0.1 μM
  Inhibition rate against osteoclast formation, %: 0%
Osteoclast formation; 1 μM
  Inhibition rate against osteoclast formation, %: 0%
Osteoclast formation; 10 μM
  Inhibition rate against osteoclast formation, %: 30%
[2]
  Alkaline phosphatase activity compared to control: about 121%
[2]; listed as compound prepared in Example 1
  Alkaline phosphatase activity compared to control: 120%
